{"source": "patent US11639503B2", "about": "“Anti-chymase aptamer and use for same” (RIBOMIC INC., priority 2017, dated 2023)", "molecules": {"B1": {"name": "9 (nucleic acid)", "chain": "rGrGrGrArAfCrGrArArGfCrGrAfCrArGrAfCrGfUfUfCfCrArGfCrGfUfCfUrArAfUrAfCrGfUrGrArAfUrArAfCfCfUrGrAfUfCrGfUrArGrGrGrGrGfUfUfCrArArGfUrAfCfUrGrArGrGrAfCrArGrA"}, "B2": {"name": "10 (nucleic acid)", "chain": "rGrGrGrArAfCrGrArArGfCrGrAfCrArGrAfCfCrGrArAfUfCrArGrArArGfUfUfCrArAfCrAfUrGrGrAfCrAfUrArAfCrAfUfCrGrAfUrGrGrGrGfUrGfUfCrArArGfUrAfCfUrGrAfCrGrAfCrArGrA"}}, "note": "Oligonucleotides are written 5' to 3', each unit as a sugar letter and its base; * is a phosphorothioate linkage, no mark a phosphodiester; rarer units and linkages stand in square brackets, end groups in braces. Plain capitals give the bases only. r = 2'-OH (RNA); f = 2'-fluoro"}
{"target": "T1, chymase (recombinant, manufactured by SIGMA) (Homo sapiens, UniProt P23946)", "T1 construct": "purchased SIGMA", "T1 sequence (P23946 22-247)": "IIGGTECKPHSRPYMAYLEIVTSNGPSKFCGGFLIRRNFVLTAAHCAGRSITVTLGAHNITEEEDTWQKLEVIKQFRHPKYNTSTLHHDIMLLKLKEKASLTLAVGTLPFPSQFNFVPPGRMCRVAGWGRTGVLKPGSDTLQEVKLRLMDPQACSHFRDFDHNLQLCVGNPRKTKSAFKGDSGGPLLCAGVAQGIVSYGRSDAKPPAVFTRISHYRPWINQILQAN", "test": "chymase enzyme activity inhibition, synthetic substrate Suc-Ala-Ala-Pro-Phe-MCA", "type": "biochemical", "details": "Table 5; MCA substrate, amount of chymase 0.005 μg instead of 0.05 μg; one measurement", "experimental": "A first method employs a synthetic substrate. A useful chymase substrate is Suc-Ala-Ala-Pro-Phe-MCA (4-methylcoumaryl-7-amide group) (manufactured by Peptide Institute, Inc.), which contains the 4-amino acid peptide “Ala-Ala-Pro-Phe” (SEQ ID NO: 41), a standard substrate for chymotrypsin-like proteases.\nThe assay is performed using a 96-well plate (F16 Black Maxisorp Fluoronunc, manufactured by Nunc), with a reaction mixture volume of 100 μL, in a buffer solution (solution C; see Example 2 below). First, each nucleic acid is prepared in solution C to obtain 50 μL solutions. After 10 μL of the 1 mM substrate prepared in solution C is added, the plate is set to the microplate reader SpectraMax190 (manufactured by Molecular Devices Corporation), and incubated at 37° C. for 5 minutes. Separately, 0.05 μg of chymase (recombinant, manufactured by SIGMA) is diluted in solution C, and 40 μL of this dilution is incubated at 37° C. for 5 minutes. The chymase solution is added to the mixture of the nucleic acid and substrate to initiate an enzyme reaction. The plate containing the reaction mixture is set to the microplate reader SpectraMax190 (manufactured by Molecular Devices Corporation), and examined for time-dependent changes in the fluorescence intensity at 37° C. for 5 minutes (excitation wavelength 380 nm, detection wavelength 460 nm). A linear approximation of the increase in the fluorescence of the AMC (7-amino-4-methylcoumarine) released from the substrate by chymase activity is generated, and its slope is taken as the initial reaction velocity. For control, samples are treated and analyzed in the same manner in two cases: use of a nucleic acid pool containing a random sequence of 30 or 40 nucleotides (negative control), and use of chymostatin, a known chymotrypsin-like serine protease inhibitor (positive control). Taking the initial reaction velocity without the nucleic acid and inhibitor as a 100% enzyme activity, the inhibitory rate for each test substance is calculated, and the inhibitor concentration required to cause a 50% inhibition of the enzyme activity (IC50) is determined.\nWhether the nucleic acids shown by SEQ ID NO: 1-8 inhibit the enzyme activity of chymase was determined as described below. The chymase substrate used was Suc-Ala-Ala-Pro-Phe-MCA (manufactured by Peptide Institute, Inc.), which contains the 4-amino-acid peptide Ala-Ala-Pro-Phe, a standard substrate for chymotrypsin-like proteases. Here, Suc is a protecting succinyl group, and MCA is a 4-methylcoumaryl-7-amide group; upon cleavage of the C-terminal side of phenylalanine, AMC (7-amino-4-methylcoumarine) is released. By detecting the fluorescence of this AMC, the enzyme activity of chymase can be determined. The assay was performed using a 96-well plate (F16 Black Maxisorp Fluoronunc, manufactured by Nunc), with a reaction mixture volume of 100 μL, in solution C as a buffer solution. Here, the solution C is a mixed solution of 145 mM sodium chloride, 5.4 mM potassium chloride, 1.8 mM calcium chloride, 0.8 mM magnesium chloride, 20 mM Tris (pH 7.6), and 0.05% Tween20. First, nucleic acid was serially diluted in solution C to obtain 50 μL solutions. After 10 μL of the 1 mM substrate prepared in solution C was added thereto, the plate was set to the microplate reader SpectraMax190 (manufactured by Molecular Devices Corporation), and incubated at 37° C. for 5 minutes. […] The chymase solution was added to the mixture of the nucleic acid and substrate to initiate an enzyme reaction. The final chymase concentration in the reaction mixture was 16.7 nM, the final substrate concentration being 100 μM. The plate containing the reaction mixture was set to the microplate reader SpectraMax190 (manufactured by Molecular Devices Corporation), and examined for time-dependent changes in the fluorescence intensity at 37° C. for 5 minutes (or 30 minutes) (excitation wavelength 380 nm, detection wavelength 460 nm). […]", "units": {"IC50": "nM"}}
{"molecule": "21 (GGCAGAUGAUCGGACAUAACAGGUUAGAUAGAGUUAAAAACCUGGGGUGUCAA; 2'-fluoro at CU, RNA at AG, backbone not given here) [compound 21]", "IC50": 5.7}
{"molecule": "22 (GGCAGAUGAUCGGACAUAACAGUUAGAUAGAGUUAAAAACUGGGGUGUCAA; 2'-fluoro at CU, RNA at AG, backbone not given here) [compound 22]", "IC50": 5}
{"target": "T2, chymase purified from human skin mast cell (native, Calbiochem) (Homo sapiens, UniProt P23946)", "T2 construct": "Here, the native is chymase purified from human skin mast cell; purchased Calbiochem; host or cells: human skin mast cell (tissue-derived)", "T2 sequence (P23946 22-247)": "T1 sequence (P23946 22-247)", "test": "chymase enzyme activity inhibition, native substrate angiotensin I (His-Leu fluorescence)", "type": "biochemical", "details": "Table 2; substrate angiotensin I 50 μM, chymase 0.5 nM, 37° C. 90 min; mean of 2 or 3 measurements", "experimental": "(§1) A second method of evaluation employs a native substrate. A useful native substrate for chymase is angiotensin I. Here, His-Leu, a peptide fragment released upon degradation of angiotensin I, is fluorescently derivatized, and the fluorescence intensity therefrom is quantified.\n(§2) In the assay, an enzyme reaction is carried out in 50 μL of solution C. First, 0.3-0.75 ng of chymase (recombinant, manufactured by SIGMA; or native, manufactured by Calbiochem) is diluted in solution C to obtain 5 μL chymase solution. Each nucleic acid is prepared in solution C to obtain 25 μL solutions. 5 μL of each chymase dilution and 25 μL of each nucleic acid solution are mixed, and then the mixture is incubated at 37° C. for 5 minutes. Separately, 20 μL of 125 μM angiotensin I (manufactured by Peptide Institute, Inc.) is prepared in solution C and incubated at 37° C. for 5 minutes. The angiotensin I solution is added to the mixture of chymase and nucleic acid, and the enzyme reaction is initiated. After the reaction was allowed to proceed at 37° C. for 90 minutes, 25 μL of ice-cooled 30% trichloroacetic acid solution is added to terminate the reaction. The entire mixture is centrifuged at 4° C., 14000 rpm for 10 minutes, and 30 μL of the resulting supernatant is used for the subsequent reaction for fluorescent derivatization.\n(§3) After 30 μL of the supernatant is added to a 96-well plate (Black, manufactured by Costar), 15 μL of 2% o-phthalaldehyde (manufactured by SIGMA) solution in methanol and 170 μL of 0.3M NaOH solution are mixed in each well, and the plate is allowed to stand at room temperature for 10 minutes. Subsequently, 25 μL of 3M HCl solution is added to terminate the reaction. The plate is set to the microplate reader SpectraMax190 (manufactured by Molecular Devices Corporation), and the fluorescence intensity is determined at an excitation wavelength of 355 nm and a fluorescence wavelength of 460 nm.\n(§4) For control, samples are treated and analyzed in the same manner in two cases: use of SEQ ID NO: 58 (negative control) and use of chymostatin, a known chymotrypsin-like serine protease inhibitor (positive control). In both cases, fluorescence intensity obtained at 0 minute reaction time serves as a blank determination. Taking the fluorescence intensity detected with the addition of an equal volume of solution C, in place of each nucleic acid, in the chymase enzyme reaction as 100%, the inhibitory rate for each test substance is calculated, and the inhibitor concentration required to cause a 50% inhibition of the enzyme activity (IC50) is determined.\n(§5) Whether the nucleic acids shown by SEQ ID NO: 9 and 10 inhibit the enzyme activity of chymase was determined by the following method. Angiotensin I is converted by chymase to angiotensin II, during which a peptide fragment His-Leu is released. Since the peptide His-Leu is fluorescently derivatized by o-phthalaldehyde, its fluorescence intensity can be quantitatively measured.\n(§6) The total volume of solution for an enzyme reaction in the assay was set to 50 μL, and the reaction was performed in solution C buffer. At first, native (manufactured by Calbiochem) was diluted with solution C to give 5 μL thereof. Here, the native is chymase purified from human skin mast cell. The nucleic acid was serially diluted with solution C at a concentration of 0.0027-2 μM to give 25 μL thereof. The chymase solution (5 μL) and the nucleic acid solution (25 μL) were mixed, and the mixture was incubated at 37° C. for 5 min. On the other hand, […] angiotensin I (manufactured by PEPTIDE INSTITUTE, INC.) was prepared in solution C to give 20 μL thereof, which was incubated at 37° C. for 5 min. The angiotensin I solution was added to a mixture of chymase and nucleic acid to start an enzyme reaction. The final chymase concentration of the reaction solution was 0.5 nM, and the final substrate concentration was 50 μM. […]", "units": {"IC50": "nM"}}
{"molecule": "B1", "IC50": 0.22}
{"molecule": "B2", "IC50": 0.43}
{"target": "T2, chymase purified from human skin mast cell (native, Calbiochem)", "test": "chymase enzyme activity inhibition, native substrate angiotensin I (His-Leu fluorescence)", "type": "biochemical", "details": "Table 6; angiotensin I as substrate; mean of 2 or 3 measurements", "experimental": "as §1, §2, §3, §4, §5, §6", "units": {"IC50": "nM"}}
{"molecule": "33(3) (AUGAUCGGACAUAACUAAUUAGGGGUGUCAA; aptamer; modified variant with 2'-O-methyl and end modifications, pattern not given here)", "IC50": 0.071}
{"molecule": "33(4) (AUGAUCGGACAUAACUAAUUAGGGGUGUCAA; aptamer; modified variant with 2'-O-methyl and end modifications, pattern not given here)", "IC50": 0.072}
{"molecule": "33(5) (AUGAUCGGACAUAACUAAUUAGGGGUGUCAA; aptamer; modified variant with 2'-O-methyl and end modifications, pattern not given here)", "IC50": 0.076}
{"molecule": "33(6) (AUGAUCGGACAUAACUAAUUAGGGGUGUCAA; aptamer; modified variant with 2'-O-methyl and end modifications, pattern not given here)", "IC50": 0.053}
{"molecule": "33(7) (AUGAUCGGACAUAACUAAUUAGGGGUGUCAA; aptamer; modified variant with 2'-O-methyl and end modifications, pattern not given here)", "IC50": 0.071}
{"molecule": "33(8) (AUGAUCGGACAUAACUAAUUAGGGGUGUCAA; aptamer; modified variant with 2'-O-methyl and end modifications, pattern not given here)", "IC50": 0.061}
{"molecule": "33(9) (AUGAUCGGACAUAACUAAUUAGGGGUGUCAA; listed as RNA, chemistry not fully specified)", "IC50": 1.35}
{"molecule": "33(10) (AUGAUCGGACAUAACUAAUUAGGGGUGUCAA; aptamer; modified variant with 2'-O-methyl and end modifications, pattern not given here)", "IC50": 0.071}
{"molecule": "33(11) (AUGAUCGGACAUAACUAAUUAGGGGUGUCAA; aptamer; modified variant with 2'-O-methyl and end modifications, pattern not given here)", "IC50": 0.051}
{"molecule": "33(12) (AUGAUCGGACAUAACUAAUUAGGGGUGUCAA; modification pattern variant (12), chemistry not fully specified)", "IC50": 0.048}
{"molecule": "33(13) (AUGAUCGGACAUAACUAAUUAGGGGUGUCAA; aptamer; modified variant with 2'-O-methyl and end modifications, pattern not given here)", "IC50": 0.069}
{"molecule": "33(14) (AUGAUCGGACAUAACUAAUUAGGGGUGUCAA; aptamer; modified variant with 2'-O-methyl and end modifications, pattern not given here)", "IC50": 0.075}
{"molecule": "33(15) (AUGAUCGGACAUAACUAAUUAGGGGUGUCAA; aptamer; modified variant with 2'-O-methyl and end modifications, pattern not given here)", "IC50": 0.072}
{"molecule": "33(16) (AUGAUCGGACAUAACUAAUUAGGGGUGUCAA; aptamer; modified variant with 2'-O-methyl and end modifications, pattern not given here)", "IC50": 0.063}
{"molecule": "33(17) (AUGAUCGGACAUAACUAAUUAGGGGUGUCAA; aptamer; modified variant with 2'-O-methyl and end modifications, pattern not given here)", "IC50": 0.038}
